Experimental data taken from patent publication US9938261B2, “Heterocyclic compounds and methods of use thereof” (AMBIT BIOSCIENCES CORPORATION, priority 2011, dated 2018).

Legend:
[1] = test system: M-NFS-60 cells; assay: M-NFS-60 cell proliferation assay (Alamar Blue); type: cell-based, mouse; conditions: Mus musculus; 72 hours incubation, M-CSF 20 ng/mL; read-out: CSF1R M-NFS-60 CTB:IC50
Method in brief: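 Alamar Blue reduction (3 h; 560/590 nm) measured viability after 72 h, 37 °C treatment with nine half-log compound concentrations at 0.5% DMSO. Cells: M-CSF-dependent (20 ng/mL) murine M-NFS-60 in RPMI plus 10% FBS. IC50s, averaged from duplicates, reflect half-maximal inhibition of proliferation relative to control.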

[2] = target: T1, FLT3 (Homo sapiens, UniProt P36888); assay: Competition binding assay, FLT3 Kd
T1 construct: made in house
T1 sequence (P36888 27-993): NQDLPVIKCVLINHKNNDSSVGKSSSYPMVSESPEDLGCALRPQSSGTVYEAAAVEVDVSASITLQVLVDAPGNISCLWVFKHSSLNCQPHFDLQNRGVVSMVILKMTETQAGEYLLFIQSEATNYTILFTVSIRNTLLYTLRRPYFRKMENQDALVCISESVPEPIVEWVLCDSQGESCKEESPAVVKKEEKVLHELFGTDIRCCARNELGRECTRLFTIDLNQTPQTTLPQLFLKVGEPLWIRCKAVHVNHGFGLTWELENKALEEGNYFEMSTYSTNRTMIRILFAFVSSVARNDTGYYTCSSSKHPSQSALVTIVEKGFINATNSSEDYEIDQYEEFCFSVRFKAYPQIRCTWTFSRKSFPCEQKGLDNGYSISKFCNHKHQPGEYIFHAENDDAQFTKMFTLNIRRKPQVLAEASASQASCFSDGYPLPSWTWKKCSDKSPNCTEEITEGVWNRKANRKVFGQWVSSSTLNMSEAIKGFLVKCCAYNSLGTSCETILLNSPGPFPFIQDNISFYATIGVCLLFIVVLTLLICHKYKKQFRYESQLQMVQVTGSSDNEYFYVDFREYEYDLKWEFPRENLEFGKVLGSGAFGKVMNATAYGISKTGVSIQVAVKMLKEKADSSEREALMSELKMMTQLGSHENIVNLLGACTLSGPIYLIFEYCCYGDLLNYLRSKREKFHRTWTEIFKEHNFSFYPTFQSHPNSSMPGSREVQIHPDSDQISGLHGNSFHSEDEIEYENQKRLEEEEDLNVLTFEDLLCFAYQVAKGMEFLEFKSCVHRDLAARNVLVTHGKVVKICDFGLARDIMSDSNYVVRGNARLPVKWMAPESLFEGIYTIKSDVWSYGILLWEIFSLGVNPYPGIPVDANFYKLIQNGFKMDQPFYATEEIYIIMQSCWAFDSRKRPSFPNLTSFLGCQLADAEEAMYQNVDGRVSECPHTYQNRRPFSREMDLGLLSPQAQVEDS
Method in brief: (§1)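 Kd values came from eleven-point threefold dilutions of compound, measured by qPCR of kinase eluted from affinity-ligand beads after 1 h equilibrium binding at room temperature. Kinase was either T7-phage fused or HEK-293-expressed with a DNA tag.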

[3] = target: T2, KIT (Homo sapiens, UniProt P10721); assay: Competition binding assay, KIT Kd
T2 construct: made in house
Method in brief: as §1

[4] = target: kinase panel containing either 386 or 392 distinct kinases; assay: Kinase selectivity score S10 from competition binding panel; conditions: compounds at 10 μM; 386 or 392 distinct kinases
Description: Competition binding assays used herein were developed, validated and performed as described in Fabian et al., Nature Biotechnology 2005, 23, 329-336. Kinases were produced as fusions to T7 phage (See, Fabian et al. or WO04/015142) or alternatively, the kinases were expressed in HEK-293 cells and subsequently tagged with DNA for PCR detection (See, WO08/005310). For the binding assays, streptavidin-coated magnetic beads were treated with biotinylated affinity ligands for 30 min at room temperature to generate affinity resins. The liganded beads were blocked with excess biotin and washed with blocking buffer (SeaBlock (Pierce), 1% BSA, 0.05% Tween 20, 1 mM DTT) to remove unbound ligand and to reduce non-specific binding. Binding reactions were assembled by combining kinase, liganded affinity beads, and test compounds in 1× binding buffer (20% SeaBlock, 0.17×PBS, 0.05% Tween 20, 6 mM DTT). Test compounds were prepared as 100× stocks in DMSO and diluted into the aqueous environment. Kds were determined using an eleven point threefold serial dilutions. DMSO or control compounds were was added to control assays lacking a test compound. Primary screen assays were performed in polypropylene 384-well plates in a final volume of 20-40 μL, while Kd determinations were performed in polystyrene 96-well plates in a final volume of 135 μL. The assay plates were incubated at room temperature with shaking for 1 hour to allow the binding reactions to reach equilibrium, and the affinity beads were washed extensively with wash buffer (1×PBS, 0.05% Tween 20) to remove unbound protein. The beads were then resuspended in elution buffer (1×PBS, 0.05% Tween […] non-biotinylated affinity ligand) and incubated at room temperature with shaking for 30 min. The kinase concentration in the eluates was measured by quantitative PCR.
A selectivity score (S10) is a quantitative measure of selectivity of a compound against a panel of kinases. An S10 was calculated for a compound by dividing the number of kinases found to have a percent of control (DMSO) less than 10 by the total number of distinct kinases tested (excluding mutant variants). Percent of control (POC) is calculated by subtracting the signal of the control compound (POC=0) from the signal of the test compound and dividing the outcome by the signal of DMSO (POC=100) minus the signal of the control compound. For the compounds disclosed herein, S10 scores were obtained by testing the compounds at 10 μM concentration in a kinase panel containing either 386 or 392 distinct kinases.

[5] = target: CSF1R (Homo sapiens, UniProt P07333); assay: Competition binding assay, CSF1R Kd; parameters: made in house
Method in brief: as §1

Chain of CSF1R (P07333 20-972): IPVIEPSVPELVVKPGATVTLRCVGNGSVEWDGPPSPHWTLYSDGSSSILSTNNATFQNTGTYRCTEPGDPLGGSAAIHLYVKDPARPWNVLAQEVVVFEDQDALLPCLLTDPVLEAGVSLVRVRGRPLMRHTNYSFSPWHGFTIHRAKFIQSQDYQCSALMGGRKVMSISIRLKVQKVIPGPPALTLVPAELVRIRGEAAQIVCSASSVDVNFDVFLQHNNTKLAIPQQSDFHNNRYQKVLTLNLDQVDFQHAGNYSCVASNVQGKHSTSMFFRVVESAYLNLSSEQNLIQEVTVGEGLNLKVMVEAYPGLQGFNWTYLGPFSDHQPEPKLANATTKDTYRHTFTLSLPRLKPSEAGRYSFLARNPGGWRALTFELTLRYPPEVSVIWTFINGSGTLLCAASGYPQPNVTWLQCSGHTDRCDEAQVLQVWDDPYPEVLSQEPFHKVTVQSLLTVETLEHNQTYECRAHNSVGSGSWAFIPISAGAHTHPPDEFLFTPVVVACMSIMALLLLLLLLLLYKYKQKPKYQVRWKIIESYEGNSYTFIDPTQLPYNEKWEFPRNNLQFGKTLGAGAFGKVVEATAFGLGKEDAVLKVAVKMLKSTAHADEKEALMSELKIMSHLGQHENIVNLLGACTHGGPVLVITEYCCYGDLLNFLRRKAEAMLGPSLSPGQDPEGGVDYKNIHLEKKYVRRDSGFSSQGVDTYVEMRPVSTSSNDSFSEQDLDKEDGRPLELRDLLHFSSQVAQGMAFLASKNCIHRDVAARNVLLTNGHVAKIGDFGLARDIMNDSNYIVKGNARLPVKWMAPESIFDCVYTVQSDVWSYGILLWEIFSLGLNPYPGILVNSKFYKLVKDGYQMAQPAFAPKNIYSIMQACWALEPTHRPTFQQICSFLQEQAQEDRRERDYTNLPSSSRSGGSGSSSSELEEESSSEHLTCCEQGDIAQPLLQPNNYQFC
T2 sequence (P10721 26-976): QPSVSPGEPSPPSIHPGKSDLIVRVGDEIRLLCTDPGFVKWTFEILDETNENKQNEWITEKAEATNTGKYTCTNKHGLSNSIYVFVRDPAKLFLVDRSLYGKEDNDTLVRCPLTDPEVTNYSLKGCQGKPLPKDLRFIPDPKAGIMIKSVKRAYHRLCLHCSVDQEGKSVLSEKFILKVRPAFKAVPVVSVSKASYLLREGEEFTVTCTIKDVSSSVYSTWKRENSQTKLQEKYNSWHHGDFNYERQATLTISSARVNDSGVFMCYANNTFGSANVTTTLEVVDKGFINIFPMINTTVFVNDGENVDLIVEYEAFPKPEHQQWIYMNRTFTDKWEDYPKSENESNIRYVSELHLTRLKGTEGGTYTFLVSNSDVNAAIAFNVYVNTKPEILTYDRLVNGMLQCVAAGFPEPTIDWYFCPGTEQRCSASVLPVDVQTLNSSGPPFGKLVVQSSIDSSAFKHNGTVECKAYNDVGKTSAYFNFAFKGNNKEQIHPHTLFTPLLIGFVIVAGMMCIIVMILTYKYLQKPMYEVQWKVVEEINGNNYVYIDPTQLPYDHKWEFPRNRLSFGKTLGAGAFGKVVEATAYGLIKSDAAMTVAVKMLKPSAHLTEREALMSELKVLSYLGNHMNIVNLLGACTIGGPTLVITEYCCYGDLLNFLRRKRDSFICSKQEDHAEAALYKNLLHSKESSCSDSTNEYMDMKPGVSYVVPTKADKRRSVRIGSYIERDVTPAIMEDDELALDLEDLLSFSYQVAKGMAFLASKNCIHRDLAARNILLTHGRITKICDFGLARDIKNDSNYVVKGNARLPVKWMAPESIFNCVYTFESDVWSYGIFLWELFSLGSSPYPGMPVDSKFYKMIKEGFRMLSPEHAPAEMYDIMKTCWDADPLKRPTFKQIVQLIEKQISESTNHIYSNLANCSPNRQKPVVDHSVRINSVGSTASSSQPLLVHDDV

| Structure (SMILES) | IC50 [1] | Kd [2] | Kd [3] | Kinase specificity S(10) [4] | Kd [5] |
| --- | --- | --- | --- | --- | --- |
| O[C@@H]1Cc2ccccc2[C@H]1Nc1nc2ccc(Cn3cnc4cccnc43)cc2s1 [Example 46, (1R,2R)-1-((6-((3H-imidazo[4,5-b]pyridin-3-yl)methyl)benzo[d]thiazol-2-yl)amino)-2,3-dihydro-1H-inden-2-ol] | 0.05 to 0.4 µM | 1 to 5 µM | 0.1 to 0.5 µM | B (0.01<B≤0.02) | ≤ 0.005 µM |
| COc1cc2ncn(Cc3ccc4nc(N[C@@H]5CCCC[C@H]5O)sc4c3)c2cc1Br [Example 47, (1R,2R)-2-((6-((6-bromo-5-methoxy-1H-benzo[d]imidazol-1-yl)methyl)benzo[d]thiazol-2-yl)amino)cyclohexanol] | ≤ 0.05 µM | 0.2 to 1 µM | ≤ 0.1 µM | B (0.01<B≤0.02) | 0.005 to 0.02 µM |
| O[C@@H]1CCCC[C@H]1Nc1nc2ccc(Cn3cnc4cncnc43)cc2s1 [Example 48, (1R,2R)-2-((6-((9H-purin-9-yl)methyl)benzo[d]thiazol-2-yl)amino)cyclohexanol] | 0.05 to 0.4 µM | > 5 µM | 0.5 to 2 µM | A (A≤0.01) | 0.005 to 0.02 µM |
| COc1cc2c(cc1Br)ncn2Cc1ccc2nc(N[C@@H]3c4ccccc4C[C@H]3O)sc2c1 [Example 49, (1R,2R)-1-((6-((5-bromo-6-methoxy-1H-benzo[d]imidazol-1-yl)methyl)benzo[d]thiazol-2-yl)amino)-2,3-dihydro-1H-inden-2-ol] | 0.05 to 0.4 µM | 1 to 5 µM | 0.5 to 2 µM | A (A≤0.01) | 0.005 to 0.02 µM |
| COc1cc2c(cc1-c1cnn(C)c1)ncn2Cc1ccc2nc(N[C@@H]3CCCC[C@H]3O)sc2c1 [Example 51, (1R,2R)-2-((6-((6-methoxy-5-(1-methyl-1H-pyrazol-4-yl)-1H-benzo[d]imidazol-1-yl)methyl)benzo[d]thiazol-2-yl)amino)cyclohexanol] | ≤ 0.05 µM | ≤ 0.2 µM | ≤ 0.1 µM | C (C>0.02) | ≤ 0.005 µM |
| COc1cc2ncn(Cc3ccc4nc(N[C@@H]5CCCC[C@H]5O)sc4c3)c2cc1-c1cnn(C)c1 [Example 52, (1R,2R)-2-((6-((5-methoxy-6-(1-methyl-1H-pyrazol-4-yl)-1H-benzo[d]imidazol-1-yl)methyl)benzo[d]thiazol-2-yl)amino)cyclohexanol] | 0.05 to 0.4 µM | ≤ 0.2 µM | ≤ 0.1 µM | C (C>0.02) | ≤ 0.005 µM |
| COc1cc2ncn(Cc3ccc4nc(N[C@@H]5CCCC[C@H]5O)sc4c3)c2cc1C#N [Example 53, 1-((2-(((1R,2R)-2-hydroxycyclohexyl)amino)benzo[d]thiazol-6-yl)methyl)-5-methoxy-1H-benzo[d]imidazole-6-carbonitrile] | ≤ 0.05 µM | 1 to 5 µM | 0.1 to 0.5 µM | B (0.01<B≤0.02) | 0.005 to 0.02 µM |
| O=C1CCCC[C@H]1Nc1nc2ccc(Cn3cnc4cccnc43)cc2s1 [Example 54, (R)-2-((6-((3H-imidazo[4,5-b]pyridin-3-yl)methyl)benzo[d]thiazol-2-yl)amino)cyclohexanone] | 0.05 to 0.4 µM | > 5 µM | 0.1 to 0.5 µM | A (A≤0.01) | 0.02 to 0.05 µM |
| O[C@@H]1CCCC[C@H]1Nc1nc2ccc(Cn3cnc4cc(Cl)cnc43)cc2s1 [Example 55, (1R,2R)-2-((6-((6-chloro-3H-imidazo[4,5-b]pyridin-3-yl)methyl)benzo[d]thiazol-2-yl)amino)cyclohexanol] | ≤ 0.05 µM | 1 to 5 µM | ≤ 0.1 µM | B (0.01<B≤0.02) | 0.005 to 0.02 µM |
| O[C@@H]1CCCC[C@H]1Nc1nc2ccc(Cn3cnc4cccnc43)cc2o1 [Example 56, (1R,2R)-2-((6-((3H-imidazo[4,5-b]pyridin-3-yl)methyl)benzo[d]oxazol-2-yl)amino)cyclohexanol] | 0.05 to 0.4 µM | 0.2 to 1 µM | ≤ 0.1 µM | C (C>0.02) | 0.005 to 0.02 µM |
| O[C@@H]1Cc2ccccc2[C@H]1Nc1nc2ccc(Cn3cnc4cccnc43)cc2o1 [Example 57, (1R,2R)-1-((6-((3H-imidazo[4,5-b]pyridin-3-yl)methyl)benzo[d]oxazol-2-yl)amino)-2,3-dihydro-1H-inden-2-ol] | 0.05 to 0.4 µM | 0.2 to 1 µM | ≤ 0.1 µM | C (C>0.02) | ≤ 0.005 µM |
| ON=C1CCCC[C@H]1Nc1nc2ccc(Cn3cnc4cccnc43)cc2s1 [Example 58, (R)-2-((6-((3H-imidazo[4,5-b]pyridin-3-yl)methyl)benzo[d]thiazol-2-yl)amino)cyclohexanone oxime] | 0.05 to 0.4 µM | 1 to 5 µM | ≤ 0.1 µM | B (0.01<B≤0.02) | ≤ 0.005 µM |
| O[C@@H]1CCCC[C@H]1Nc1nc2ccc(Cn3cnc4cc(Br)cnc43)cc2o1 [Example 61, (1R,2R)-2-((6-((6-bromo-3H-imidazo[4,5-b]pyridin-3-yl)methyl)benzo[d]oxazol-2-yl)amino)cyclohexanol] | ≤ 0.05 µM | ≤ 0.2 µM | ≤ 0.1 µM | C (C>0.02) | 0.005 to 0.02 µM |
| O[C@@H]1Cc2ccccc2[C@H]1Nc1nc2ccc(Cn3cnc4cc(Br)cnc43)cc2o1 [Example 62, (1R,2R)-1-((6-((6-bromo-3H-imidazo[4,5-b]pyridin-3-yl)methyl)benzo[d]oxazol-2-yl)amino)-2,3-dihydro-1H-inden-2-ol] | ≤ 0.05 µM | 0.2 to 1 µM | ≤ 0.1 µM | C (C>0.02) | ≤ 0.005 µM |
| OC[C@@H](Nc1nc2ccc(Cn3cnc4cccnc43)cc2s1)C1CCCCC1 [Example 63, (S)-2-((6-((3H-imidazo[4,5-b]pyridin-3-yl)methyl)benzo[d]thiazol-2-yl)amino)-2-cyclohexylethanol] | 0.05 to 0.4 µM | ≤ 0.2 µM | ≤ 0.1 µM | C (C>0.02) | 0.005 to 0.02 µM |
| OC[C@H](Nc1nc2ccc(Cn3cnc4cccnc43)cc2s1)C1CCCCC1 [Example 64, (R)-2-((6-((3H-imidazo[4,5-b]pyridin-3-yl)methyl)benzo[d]thiazol-2-yl)amino)-2-cyclohexylethanol] | 0.05 to 0.4 µM | 0.2 to 1 µM | ≤ 0.1 µM | C (C>0.02) | 0.005 to 0.02 µM |
